The source of these data is ChEMBL document CHEMBL1909046, “DrugMatrix in vitro pharmacology data”.

Broadly, the IC50 is the concentration at which inhibition is half-maximal.

Chain of Substance-P receptor (P25103 whole entry): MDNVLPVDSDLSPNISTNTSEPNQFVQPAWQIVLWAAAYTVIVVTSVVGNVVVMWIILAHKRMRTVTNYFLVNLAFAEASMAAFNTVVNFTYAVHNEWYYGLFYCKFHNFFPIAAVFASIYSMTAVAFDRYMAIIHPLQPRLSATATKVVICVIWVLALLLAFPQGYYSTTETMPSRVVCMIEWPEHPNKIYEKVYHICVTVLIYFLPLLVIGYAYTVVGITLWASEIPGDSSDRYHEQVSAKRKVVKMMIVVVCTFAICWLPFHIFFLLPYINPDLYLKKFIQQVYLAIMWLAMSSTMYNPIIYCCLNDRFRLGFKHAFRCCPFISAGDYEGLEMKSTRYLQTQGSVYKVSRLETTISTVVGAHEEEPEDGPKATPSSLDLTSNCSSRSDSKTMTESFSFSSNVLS

The target in one experiment is Protein phosphatase 3 catalytic subunit alpha (Homo sapiens, UniProt Q08209).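 Note: inhibition of calcineurin (PP2B) enzyme activity, measured with DiFMUP as the substrate; in other assays of this panel Not Active means under 50% inhibition at 10 µM.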
Assay: not given
Also noted: species or system Escherichia coli.
Conditions: not given
With `CC(C)c1cccc(C(C)C)c1O` [PROPOFOL], the IC50 entry is listed as “Not Active”.

`C[C@@H]1O[C@@H](O[C@@H]2C=C3CC[C@@H]4[C@H](CC[C@]5(C)[C@@H](c6ccc(=O)oc6)CC[C@]45O)[C@@]3(C)CC2)[C@H](O)[C@H](O)[C@H]1O` [PROSCILLARIDIN]: the IC50 entry is “Not Active”.

With `Oc1cccc(O)c1O` [PYROGALLOL], the IC50 entry is on record as “Not Active”.

Take AURANOFIN: the IC50 result was “Not Active” and the Ki entry is on record as “Not Active”.

With GADOPENTETATE DIMEGLUMINE, the concentration for half-maximal inhibition (IC50) entry is on record as “Not Active” and the Ki entry is given as “Not Active”.

Regarding GENTAMICIN, the IC50 entry is “Not Active” and the Ki entry was “Not Active”.

As for GRAMICIDIN, the IC50 result is “Not Active” and the Ki result is given as “Not Active”.

As to NYSTATIN, the concentration for half-maximal inhibition (IC50) result is “Not Active” and the Ki entry was “Not Active”.

A further experiment deals with T1, 5-hydroxytryptamine receptor 1A (Rattus norvegicus, UniProt P19327).
T1 sequence (P19327 whole entry): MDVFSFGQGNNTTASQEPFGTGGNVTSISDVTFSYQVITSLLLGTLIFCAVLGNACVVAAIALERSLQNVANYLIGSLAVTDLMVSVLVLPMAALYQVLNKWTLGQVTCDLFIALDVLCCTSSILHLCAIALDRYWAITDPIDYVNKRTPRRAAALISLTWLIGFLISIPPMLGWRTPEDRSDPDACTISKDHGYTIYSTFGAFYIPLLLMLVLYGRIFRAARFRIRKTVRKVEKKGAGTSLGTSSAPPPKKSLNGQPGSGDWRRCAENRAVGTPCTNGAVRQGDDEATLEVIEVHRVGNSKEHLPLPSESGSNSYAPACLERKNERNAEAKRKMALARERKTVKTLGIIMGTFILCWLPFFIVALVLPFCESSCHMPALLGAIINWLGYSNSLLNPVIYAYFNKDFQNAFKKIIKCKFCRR
Assay: not given
It counts as cell membranes, CHO-K1, Membrane. To be noted: cho-k1.
Take `CC(C)c1cccc(C(C)C)c1O` [PROPOFOL]: the IC50 entry is given as “Not Active”.

In the case of `C[C@@H]1O[C@@H](O[C@@H]2C=C3CC[C@@H]4[C@H](CC[C@]5(C)[C@@H](c6ccc(=O)oc6)CC[C@]45O)[C@@]3(C)CC2)[C@H](O)[C@H](O)[C@H]1O` [PROSCILLARIDIN], the IC50 result is “Not Active”.

On to `Oc1cccc(O)c1O` [PYROGALLOL], for which the IC50 result was “Not Active”.

Consider AURANOFIN, for which the IC50 result is “Not Active” and the Ki entry is recorded as “Not Active”.

With GADOPENTETATE DIMEGLUMINE, the IC50 entry is “Not Active” and the Ki result is recorded as “Not Active”.

On to GENTAMICIN, for which the IC50 entry is given as “Not Active” and the Ki result is reported as “Not Active”.

As to GRAMICIDIN, the 50% inhibitory concentration (IC50) entry is listed as “Not Active” and the Ki entry was “Not Active”.

For the molecule NYSTATIN, the IC50 entry was “Not Active” and the Ki entry is “Not Active”.

A further experiment deals with T2, Muscarinic acetylcholine receptor M2 (Homo sapiens, UniProt P08172).
T2 sequence (P08172 whole entry): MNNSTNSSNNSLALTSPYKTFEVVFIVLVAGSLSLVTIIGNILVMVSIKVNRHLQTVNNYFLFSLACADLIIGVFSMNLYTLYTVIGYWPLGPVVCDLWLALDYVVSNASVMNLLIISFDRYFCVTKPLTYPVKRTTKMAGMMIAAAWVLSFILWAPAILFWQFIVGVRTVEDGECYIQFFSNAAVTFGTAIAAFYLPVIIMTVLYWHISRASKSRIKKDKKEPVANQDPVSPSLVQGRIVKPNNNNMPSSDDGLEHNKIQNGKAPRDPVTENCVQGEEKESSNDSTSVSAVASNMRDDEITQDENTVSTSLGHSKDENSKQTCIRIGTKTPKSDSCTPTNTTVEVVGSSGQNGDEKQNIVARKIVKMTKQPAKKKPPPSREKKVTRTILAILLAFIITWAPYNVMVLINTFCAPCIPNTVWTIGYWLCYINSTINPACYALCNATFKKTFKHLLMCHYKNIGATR
Assay: not given
It counts as cell membranes, CHO-K1, Membrane. To be noted: cho-k1.
Consider `CC(C)c1cccc(C(C)C)c1O` [PROPOFOL], for which the IC50 entry is “Not Active”.

In the case of `C[C@@H]1O[C@@H](O[C@@H]2C=C3CC[C@@H]4[C@H](CC[C@]5(C)[C@@H](c6ccc(=O)oc6)CC[C@]45O)[C@@]3(C)CC2)[C@H](O)[C@H](O)[C@H]1O` [PROSCILLARIDIN], the concentration for half-maximal inhibition (IC50) result is on record as “Not Active”.

As for `Oc1cccc(O)c1O` [PYROGALLOL], the IC50 entry was “Not Active”.

Regarding AURANOFIN, the IC50 result is recorded as “Not Active” and the Ki result is “Not Active”.

In the case of GADOPENTETATE DIMEGLUMINE, the half-inhibitory concentration (IC50) result was “Not Active” and the Ki result was “Not Active”.

For GENTAMICIN, the IC50 entry is on record as “Not Active” and the Ki entry was “Not Active”.

Regarding GRAMICIDIN, the IC50 entry was “Not Active” and the Ki result is given as “Not Active”.

In the case of NYSTATIN, the concentration for half-maximal inhibition (IC50) entry was “Not Active” and the Ki result is “Not Active”.

Tested on in a further experiment: not listed separately
In words: DRUGMATRIX: Leukotriene, BLT (LTB4) radioligand binding (ligand: [3H]LTB4). It counts as cell membranes, Membrane. To be noted: u-937; Not Active = under 50% inhibition at 10 µM.
`CC(C)c1cccc(C(C)C)c1O` [PROPOFOL]: the IC50 result is recorded as “Not Active” and the Ki entry is given as “Not Active”.

In the case of `C[C@@H]1O[C@@H](O[C@@H]2C=C3CC[C@@H]4[C@H](CC[C@]5(C)[C@@H](c6ccc(=O)oc6)CC[C@]45O)[C@@]3(C)CC2)[C@H](O)[C@H](O)[C@H]1O` [PROSCILLARIDIN], the IC50 entry is given as “Not Active” and the Ki entry is “Not Active”.

As to `Oc1cccc(O)c1O` [PYROGALLOL], the half-maximal inhibitory concentration (IC50) entry is “Not Active” and the Ki entry is given as “Not Active”.

Turning to AURANOFIN, the IC50 result is listed as “Not Active” and the Ki entry is reported as “Not Active”.

Take GADOPENTETATE DIMEGLUMINE: the IC50 entry is listed as “Not Active” and the Ki entry is “Not Active”.

As to GENTAMICIN, the concentration for half-maximal inhibition (IC50) entry is reported as “Not Active” and the Ki entry is reported as “Not Active”.

Regarding GRAMICIDIN, the 50% inhibitory concentration (IC50) result is reported as “Not Active” and the Ki entry is “Not Active”.

Turning to NYSTATIN, the 50% inhibitory concentration (IC50) result is listed as “Not Active” and the Ki result is “Not Active”.

A further experiment concerns the target T3, Thromboxane-A synthase (Homo sapiens, UniProt P24557).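 Note: enzyme inhibition assay with PGH2 supplied as substrate; in other assays of this panel Not Active means under 50% inhibition at 10 µM.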
T3 sequence (P24557 whole entry): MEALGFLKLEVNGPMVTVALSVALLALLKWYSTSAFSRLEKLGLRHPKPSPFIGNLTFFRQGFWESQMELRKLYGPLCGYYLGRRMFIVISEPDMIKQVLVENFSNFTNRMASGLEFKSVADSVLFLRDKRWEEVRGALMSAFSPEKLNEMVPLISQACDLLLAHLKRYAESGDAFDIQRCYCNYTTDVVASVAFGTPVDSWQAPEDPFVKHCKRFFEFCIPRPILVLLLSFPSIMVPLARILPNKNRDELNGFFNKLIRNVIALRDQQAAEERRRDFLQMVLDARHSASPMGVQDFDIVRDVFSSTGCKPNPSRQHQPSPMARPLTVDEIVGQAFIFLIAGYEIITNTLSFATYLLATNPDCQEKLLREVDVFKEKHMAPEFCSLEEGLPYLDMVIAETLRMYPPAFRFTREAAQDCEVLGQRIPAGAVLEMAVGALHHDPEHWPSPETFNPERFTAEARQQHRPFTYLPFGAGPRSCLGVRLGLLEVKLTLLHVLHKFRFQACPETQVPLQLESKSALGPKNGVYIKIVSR
Nature of the experiment: biochemical. It counts as tissue-based, Platelet. To be noted: platelet.
As for `CC(C)c1cccc(C(C)C)c1O` [PROPOFOL], the 50% inhibitory concentration (IC50) result is “Not Active”.

Regarding `C[C@@H]1O[C@@H](O[C@@H]2C=C3CC[C@@H]4[C@H](CC[C@]5(C)[C@@H](c6ccc(=O)oc6)CC[C@]45O)[C@@]3(C)CC2)[C@H](O)[C@H](O)[C@H]1O` [PROSCILLARIDIN], the IC50 entry is listed as “Not Active”.

In the case of `Oc1cccc(O)c1O` [PYROGALLOL], the IC50 result is listed as “Not Active”.

Take AURANOFIN: the IC50 entry is “Not Active” and the Ki entry is given as “Not Active”.

Regarding GADOPENTETATE DIMEGLUMINE, the IC50 entry was “Not Active” and the Ki entry is listed as “Not Active”.

GENTAMICIN: the half-maximal inhibitory concentration (IC50) entry is “Not Active” and the Ki result was “Not Active”.

As to NYSTATIN, the IC50 result is listed as “Not Active” and the Ki entry is “Not Active”.

Still in this experiment, the particulars now being: platelet; read-out: IC50.
Turning to GRAMICIDIN, the IC50 worked out at 774 nM.

A further experiment concerns the target Substance-P receptor (Homo sapiens, UniProt P25103). Note: in other assays of this panel Not Active means under 50% inhibition at 10 µM.
Assay: not given
It counts as cell membranes, CHO, Membrane. To be noted: cho.
Turning to `CC(C)c1cccc(C(C)C)c1O` [PROPOFOL], the half-inhibitory concentration (IC50) result is listed as “Not Active”.

Consider `C[C@@H]1O[C@@H](O[C@@H]2C=C3CC[C@@H]4[C@H](CC[C@]5(C)[C@@H](c6ccc(=O)oc6)CC[C@]45O)[C@@]3(C)CC2)[C@H](O)[C@H](O)[C@H]1O` [PROSCILLARIDIN], for which the concentration for half-maximal inhibition (IC50) entry is given as “Not Active”.

With `Oc1cccc(O)c1O` [PYROGALLOL], the concentration for half-maximal inhibition (IC50) entry is on record as “Not Active”.

Consider AURANOFIN, for which the IC50 entry is “Not Active” and the Ki entry is given as “Not Active”.

For GADOPENTETATE DIMEGLUMINE, the IC50 result was “Not Active” and the Ki result was “Not Active”.

Turning to GENTAMICIN, the IC50 result was “Not Active” and the Ki result was “Not Active”.

For GRAMICIDIN, the half-maximal inhibitory concentration (IC50) result is “Not Active” and the Ki entry was “Not Active”.

For the molecule NYSTATIN, the IC50 entry is “Not Active” and the Ki entry is recorded as “Not Active”.

Tested on in the next experiment: not listed separately
In words: DRUGMATRIX: Interleukin IL-1 radioligand binding (ligand: [125I] interleukin 1beta). It counts as cell membranes, Membrane. To be noted: nih3t3; Not Active = under 50% inhibition at 10 µM.
With `CC(C)c1cccc(C(C)C)c1O` [PROPOFOL], the IC50 entry is “Not Active” and the Ki result is recorded as “Not Active”.

For the molecule `C[C@@H]1O[C@@H](O[C@@H]2C=C3CC[C@@H]4[C@H](CC[C@]5(C)[C@@H](c6ccc(=O)oc6)CC[C@]45O)[C@@]3(C)CC2)[C@H](O)[C@H](O)[C@H]1O` [PROSCILLARIDIN], the half-maximal inhibitory concentration (IC50) result is listed as “Not Active” and the Ki entry is “Not Active”.

With `Oc1cccc(O)c1O` [PYROGALLOL], the IC50 result was “Not Active” and the Ki entry was “Not Active”.

On to AURANOFIN, for which the IC50 entry is listed as “Not Active” and the Ki result is given as “Not Active”.

In the case of GADOPENTETATE DIMEGLUMINE, the concentration for half-maximal inhibition (IC50) result was “Not Active” and the Ki entry was “Not Active”.

As to GENTAMICIN, the IC50 result was “Not Active” and the Ki result is given as “Not Active”.

As for GRAMICIDIN, the IC50 entry is “Not Active” and the Ki result is recorded as “Not Active”.

Turning to NYSTATIN, the concentration for half-maximal inhibition (IC50) entry was “Not Active” and the Ki entry was “Not Active”.
